Experimental data taken from patent US20220324835A1 (Nurix Therapeutics, Inc., priority 2018, published 2022).
Read-outs that look alike come from different tables or passages of the source.

Experiments:
[1] = tested on: T-cells; assay: In vivo activity: CD25 expression on CD4+ or CD8+ T-cells of mice stimulated with anti-CD3 antibody; conditions: 2 μg anti-CD3 antibody, 24 hours
Protocol: A method of determining the pharmacodynamic profile of Cbl-b inhibitors was performed by dosing strains of mice with competent immune systems such as C57BL/6 or BALB/c with a Cbl-b inhibitor. The Cbl-b inhibitor was dissolved in a suitable formulation and administered by one of various routes such as intravenous (IV), intraperitoneal (IP), subcutaneous (SC), or oral (PO), at a suitable dose level and frequency (e.g. twice per day BID or thrice per day TID) as informed by prior pharmacokinetic and tolerability studies. Following administration of the Cbl-b inhibitor, T-cells and indirectly other immune cells (e.g. via cytokine production) were stimulated in vivo by administration of an anti-CD3 antibody or antigen-binding fragment thereof in PBS at defined amounts such as 2 μg or 10 μg per animal by routes such as IV or IP (See Hirsh et al., J. Immunol., 1989; Ferran, et al., Eur. J. Immunol., 1990). Additional study control arms included groups of mice treated with a vehicle formulation alone (i.e., formulation without the Cbl-b inhibitor and anti-CD3 antibody), a formulation containing the Cbl-b inhibitor alone, a formulation containing the anti-CD3 antibody alone, PBS alone, or combinations of these agents. The level of immune activation was then assessed by analysis of plasma cytokine levels and/or expression of activation markers on immune cells (e.g. T-cells). Blood or lymphoid organs (e.g. spleen) were collected at defined time points (e.g. 8 hours or 24 hours). Blood samples were processed to collect plasma for determination of cytokine levels using standard methods known in the art. Cytokines measured included IL-2, IFNγ, and TNFα. Additional blood samples and lymphoid tissues were processed for flow cytometric analysis of immune cells (e.g. T-cells) using standard methods to determine expression of cell type-specific markers and activation markers such as CD25 and/or CD69. Augmentation of immune stimulation by Cbl-b inhibitor administration was assessed by comparing the relative concentrations of cytokines in plasma, or the expression levels of activation markers on immune cells between appropriate groups (e.g. mice treated with Cbl-b inhibitor and 2 μg anti-CD3 antibody versus mice treated with vehicle and 2 μg anti-CD3 antibody).
Cbl-b inhibitors were tested to determine their ability to induce or enhance the level of cytokines (e.g. IL-2, IFNγ, and TNFα) in blood obtained from treated mice stimulated with an anti-CD3 antibody, which is indicative of modulation of the immune response. Cbl-b inhibitors were also tested to determine their ability to induce or enhance the expression of cell surface markers on T-cells (e.g. CD25 and/or CD69) isolated from treated mice stimulated with an anti-CD3 antibody, which is indicative of modulation of the immune response.
Readouts were reported as fold change over baseline. The fold change was calculated from the mean value of mice treated with Cbl-b inhibitor and 2 μg anti-CD3 antibody, with the baseline defined as the mean value of mice treated with vehicle and 2 μg anti-CD3 antibody. Increases in the percentage of cells with surface expression of CD25 on CD4+ T-cells or CD8+ T-cells greater than 1.5-fold over baseline at 24 hours were considered a positive response. Increases in the plasma concentration of IL-2, IFNγ, and TNFα greater than 1.5-fold over baseline at 8 hours post-stimulation were also considered a positive response (Table 8). Fold changes were ranked into bins according to their readouts as follows: A indicates >2.50, B indicates 2.01-2.50, C indicates 1.51-2.00, D indicates 1.00-1.50, and E indicates <1.00.

[2] = tested on: primary human NK cells; assay: NK cell activation assessed by cytokine secretion (coculture with K562 NucRed target cells); format: cell-based; conditions: for fold induction at 0.625 µM: 0.625 μM compound; for fold induction at 2.5 µM: 2.5 μM compound
Protocol: Peripheral blood mononuclear cells (PBMC) were obtained either: 1) by using Ficoll-Paque™ (GE Healthcare) for separation of peripheral blood hematopoietic cells from buffy coats of healthy human donors; or 2) directly from LeukoPak donations. […] The cells were cultured overnight with IL-2 (60 ng/mL) at 37° C. 5% CO2. Cbl-b inhibitors were added 1 hour prior to stimulation and incubated at 37° C. 5% CO2 at a specific concentration (e.g., 10 μM, 1 μM, or 0.1 μM) with a final DMSO concentration of <0.1%. NK cells were co-cultured with target cells that were engineered to have a red nucleus (K562 NucRed) measurable by flow cytometry. […] The cells were mixed at the indicated ratios (e.g., 5:1, 1:1, or 1:5) of NK (effector cells) to K562 NucRed (target cells) for 6 hours. Cell free supernatants were collected and analyzed for cytokine secretion (e.g. TNFα, IFNγ, or MIP1β) by ELISA or Luminex multiplex kits following the manufacturer's protocol. IFNγ secretion was assessed using an R&D Systems ELISA kit (Catalog #DY285), TNFα secretion was assessed using an R&D Systems ELISA kit (Catalog #DY210), and MIP1β secretion was assessed using an R&D Systems ELISA kit (Catalog #DY271).
Readouts were reported as fold change over baseline. Baseline for this study was the measurement obtained from primary human NK effector cells cocultured with K562 NucRed target cells in the absence of a Cbl-b inhibitor. For NK cells cocultured with K562 NucRed cells, changes greater than 2.0-fold over baseline for cytokine secretion were considered a positive response (Table 10a and 10b).

[3] = tested on: T-cell; assay: CD25 cell surface staining on T-cells stimulated with anti-CD3 antibody alone (Biological Example 2); format: cell-based; conditions: primary human total T-cells, baseline = anti-CD3/anti-CD28 stimulated cells without inhibitor, read-out: CD25 staining, Anti-CD3 stimulation, fold change over baseline; for fold induction at 1 µM: 1 μM compound; for fold induction at 8 µM: 8 μM compound
[4] = K562, NK cells cocultured with K562 NucRed, 1:1 E/T, read-out: IFNγ secretion, fold change over baseline
[5] = K562, NK cells cocultured with K562 NucRed, 1:1 E/T, read-out: TNFα secretion, fold change over baseline
[6] = K562, NK cells cocultured with K562 NucRed, 1:1 E/T, 10 μM compound, read-out: IFNγ secretion, fold change over baseline
[7] = K562, NK cells cocultured with K562 NucRed, 1:1 E/T, 10 μM compound, read-out: TNFα secretion, fold change over baseline

Row | Compound | CD4+ T-cell % CD25+ ([1]; 135 mpk PO BID) | CD8+ T-cell % CD25+ ([1]; 135 mpk PO BID) | fold induction at 0.625 µM [2, 4] | fold induction at 0.625 µM [2, 5] | fold induction at 2.5 µM [2, 4] | fold induction at 2.5 µM [2, 5] | fold induction at 10 µM [2, 6] | fold induction at 10 µM [2, 7] | fold induction at 1 µM [3] | fold induction at 8 µM [3] | further results
1 | Cn1cnnc1CC1(c2cccc(N3Cc4c(cc(CN5CCC(C)(F)CC5)cc4C(F)(F)F)C3=O)c2)COC1 [Example 620, 6-((4-fluoro-4-methylpiperidin-1-yl)methyl)-2-(3-(3-((4-methyl-4H-1,2,4-triazol-3-yl)methyl)oxetan-3-yl)phenyl)-4-(trifluoromethyl)isoindolin-1-one] | D (D indicates 1.00-1.50) | E (E indicates <1.00) |  |  |  |  |  |  |  |  | CD4+ T-cell % CD25+ ([1]; 90 mpk PO BID): D (D indicates 1.00-1.50); CD8+ T-cell % CD25+ ([1]; 90 mpk PO BID): D (D indicates 1.00-1.50); CD4+ T-cell % CD25+ ([1]; 180 mpk PO BID): D (D indicates 1.00-1.50); CD8+ T-cell % CD25+ ([1]; 180 mpk PO BID): E (E indicates <1.00)
2 | Cn1cnnc1[C@H](F)C1(c2cccc(N3Cc4c(cc(CN5CCC(F)CC5)cc4C(F)(F)F)C3=O)c2)COC1 [Example 670b, (R)-2-(3-(3-(fluoro(4-methyl-4H-1,2,4-triazol-3-yl)methyl)oxetan-3-yl)phenyl)-6-((4-fluoropiperidin-1-yl)methyl)-4-(trifluoromethyl)isoindolin-1-one] | C (C indicates 1.51-2.00) | D (D indicates 1.00-1.50) |  |  |  |  |  |  |  |  | 
3 | C[C@H](c1cc2c(c(C(F)(F)F)c1)CN(c1cccc(C3([C@H](F)c4nncn4C)COC3)c1)C2=O)N1CCC2(CC2)C1 (stereo in doubt) [Example 575, 6-((R)-1-(5-Azaspiro[2.4]heptan-5-yl)ethyl)-2-(3-(3-((S)-fluoro(4-methyl-4H-1,2,4-triazol-3-yl)methyl)oxetan-3-yl)phenyl)-4-(trifluoromethyl)isoindolin-1-one] |  |  |  |  |  |  |  |  |  |  | CD4+ T-cell % CD25+ ([1]; 45 mpk PO BID): C (C indicates 1.51-2.00); CD8+ T-cell % CD25+ ([1]; 45 mpk PO BID): D (D indicates 1.00-1.50); CD4+ T-cell % CD25+ ([1]; 90 mpk PO BID): A (A indicates >2.50); CD8+ T-cell % CD25+ ([1]; 90 mpk PO BID): C (C indicates 1.51-2.00); CD4+ T-cell % CD25+ ([1]; 180 mpk PO BID): A (A indicates >2.50); CD8+ T-cell % CD25+ ([1]; 180 mpk PO BID): C (C indicates 1.51-2.00)
4 | C[C@@H]1CN(Cc2cc3c(c(C(F)(F)F)c2)CN(c2cccc(C4(Cc5nncn5C)COC4)c2)C3=O)CCO1 [Example 663b, (R)-2-(3-(3-((4-methyl-4H-1,2,4-triazol-3-yl)methyl)oxetan-3-yl)phenyl)-6-((2-methylmorpholino)methyl)-4-(trifluoromethyl)isoindolin-1-one] | C (C indicates 1.51-2.00) | D (D indicates 1.00-1.50) |  |  |  |  |  |  |  |  | CD4+ T-cell % CD25+ ([1]; 45 mpk PO BID): D (D indicates 1.00-1.50); CD8+ T-cell % CD25+ ([1]; 45 mpk PO BID): D (D indicates 1.00-1.50)
5 | Cn1cnnc1C(F)(F)[C@](C)(F)c1cccc(N2Cc3c(cc(N4CCNCC4)cc3C(F)(F)F)C2=O)c1 [Compound 442, (R)-6-(Piperazin-1-yl)-2-(3-(1,1,2-trifluoro-1-(4-methyl-4H-1,2,4-triazol-3-yl)propan-2-yl)phenyl)-4-(trifluoromethyl)isoindolin-1-one] |  |  | 2.01 to 5 | 2.01 to 5 | 2.01 to 5 | 2.01 to 5 | 2.01 to 5 | 1.01 to 2 | > 1 | 0.801 to 1 | 
6 | C[C@H](Cc1nncn1C)c1cccc(NC(=O)c2cc3cc(N4CCNCC4)ccc3cn2)c1 [Compound 472, N-{3-[(2R)-1-(4-methyl-4H-1,2,4-triazol-3-yl)propan-2-yl]phenyl}-6-(piperazin-1-yl)isoquinoline-3-carboxamide] |  |  | < 1 | < 1 | 1.01 to 2 | < 1 | 2.01 to 5 | 1.01 to 2 | 0.801 to 1 | 0.801 to 1 | 
7 | C[C@H](Cc1nncn1C)c1cccc(N2Cc3c(cc(CN4CC[C@H](F)C4)cc3C(F)(F)F)C2=O)c1 [Compound 399, 6-(((S)-3-fluoropyrrolidin-1-yl)methyl)-2-(3-((R)-1-(4-methyl-4H-1,2,4-triazol-3-yl)propan-2-yl)phenyl)-4-(trifluoromethyl)isoindolin-1-one] |  |  | 2.01 to 5 | 2.01 to 5 | > 5 | > 5 | > 5 | > 5 | > 1 | > 1 | fold induction at 1 µM ([2]; K562, 1:1 E/T, read-out: IFNγ secretion): 2.01 to 5; fold induction at 1 µM ([2]; K562, 1:1 E/T, read-out: MIP1β secretion): 1.01 to 2; fold induction at 1 µM ([2]; K562, 1:1 E/T, read-out: TNFα secretion): 2.01 to 5; fold induction at 10 µM ([2]; K562, 1:1 E/T, 10 μM, read-out: IFNγ secretion): > 5; fold induction at 10 µM ([2]; K562, 1:1 E/T, 10 μM, read-out: MIP1β secretion): 1.01 to 2; fold induction at 10 µM ([2]; K562, 1:1 E/T, 10 μM, read-out: TNFα secretion): 2.01 to 5; fold induction at 1 µM ([2]; K562, 5:1 E/T, read-out: IFNγ secretion): 2.01 to 5; fold induction at 1 µM ([2]; K562, 5:1 E/T, read-out: MIP1β secretion): 1.01 to 2; fold induction at 1 µM ([2]; K562, 5:1 E/T, read-out: TNFα secretion): 2.01 to 5; fold induction at 10 µM ([2]; K562, 5:1 E/T, 10 μM, read-out: IFNγ secretion): > 5; fold induction at 10 µM ([2]; K562, 5:1 E/T, 10 μM, read-out: MIP1β secretion): 1.01 to 2; fold induction at 10 µM ([2]; K562, 5:1 E/T, 10 μM, read-out: TNFα secretion): > 5
8 | Cn1cnnc1C(F)(F)[C@](C)(F)c1cccc(N2Cc3c(cc(CN4CC[C@@H](F)C4)cc3C(F)(F)F)C2=O)c1 [Compound 450] |  |  | 2.01 to 5 | 1.01 to 2 | > 5 | 2.01 to 5 | > 5 | 2.01 to 5 | > 1 | > 1 | 
